Reference: patent US9995734B2, “Human T cell line assay for evaluating the immunologic identity of glatiramer acetate preparations” (Mylan Inc., priority 2013, dated 2018)
Several values for one entry are separate records, joined by “and”; a condition that tells them apart may be missing. Equal entries are not always repeated.

Key:
[1] = system: Donor 1 GMA Expanded T-Cell Lines (222-AG11, 222-AG12, 222-BA11, 222-BC11); test: ATP proliferation assay (CellTiter Glo), Donor 1 GMA expanded T-cell lines, incl. reactivity to non-canonical GA peptides; type: cell-based, human; conditions: for Proliferation (luminescent ATP assay), Mean: T-cell line 222-AG12, autologous B-LCL
Outline: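 GMA-expanded T-cell lines from Donor 1 restimulated with GMA (0–100 μg/mL), or with non-canonical GA peptides, COP and GMA (0–30 μg/mL; T cells 2×10^5 cells/mL). Mitomycin C-treated autologous PBMC or B-LCL served as APC. Proliferation read by CellTiter-Glo ATP luminescence after 3 days at 37° C.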

Donor 3 GMA T-Cell Lines = test: ATP proliferation assay (CellTiter Glo), Donor 3 GMA T-cell lines, incl. reactivity to non-canonical GA peptides; type: cell-based, human; conditions: for proliferation response to non-canonical GA peptides: 0, 1, 3, 10, 30 μg/mL; for Non-Canonical Peptide Non-Reactivity: proliferation <2 times no antigen control; for Non-Canonical Peptide Reactivity: at least one proliferation value >=2 times no antigen control

poly (Glu-Lys-Tyr; 6:3:1) [GLT 631]
Non-Canonical Peptide Non-Reactivity ([1]; 222-AG12, proliferation <2 times no antigen control): GLT 631
Nonreactive T-Cell Line ([1]; Donor 1 GMA expanded lines, stimulation with the non-canonical GA peptide): 222-AG12 (Donor 1)
Proliferation (luminescent ATP assay), Mean ([1]; 1 ug/mL antigen): 3801 RLU
Proliferation (luminescent ATP assay), Mean ([1]; 10 ug/mL antigen): 4002 RLU
Proliferation (luminescent ATP assay), Mean ([1]; 30 ug/mL antigen): 5292 RLU
proliferation response to non-canonical GA peptides (Donor 3 GMA T-Cell Lines; 165-B5G and 165-E7G, Day 81): responded well
Non-Canonical Peptide Non-Reactivity (Donor 3 GMA T-Cell Lines; 165-B5G): GLT 631
Non-Canonical Peptide Non-Reactivity (Donor 3 GMA T-Cell Lines; 165-C5G): GLT 631
Non-Canonical Peptide Reactivity (Donor 3 GMA T-Cell Lines; 165-E7G): GLT 631
Non-Canonical Peptide Non-Reactivity (Donor 3 GMA T-Cell Lines; 165-E9G): GLT 631
Non-Canonical Peptide Non-Reactivity (Donor 3 GMA T-Cell Lines; 165-F5G): GLT 631
Non-Canonical Peptide Non-Reactivity (Donor 3 GMA T-Cell Lines; 165-F10G): GLT 631
proliferation response to non-canonical GA peptides (Donor 3 GMA T-Cell Lines; 165-H11G, Day 50): responded
Non-Canonical Peptide Reactivity (Donor 3 GMA T-Cell Lines; 165-H11G): GLT 631
Reactive T-Cell Line (Donor 3 GMA T-Cell Lines; Donor 3 GMA lines, at least a 50% increase in proliferation relative to a control after stimulation with the non-canonical GA peptide): 165-H11G (Donor 3)
Nonreactive T-Cell Line (Donor 3 GMA T-Cell Lines; Donor 3 GMA lines, stimulation with the non-canonical GA peptide): 165-B5G (Donor 3) and 165-C5G (Donor 3) and 165-C8G (Donor 3) and 165-E7G (Donor 3) and 165-E9G (Donor 3) and 165-F5G (Donor 3) and 165-F10G (Donor 3)
Proliferation (luminescent ATP assay), Mean (Donor 3 GMA T-Cell Lines; T-cell line 165-05G, 1 μg/mL antigen, Day 50 of culturing, No Antigen Value 2149): 1871 RLU
Proliferation (luminescent ATP assay), Mean (Donor 3 GMA T-Cell Lines; T-cell line 165-05G, 3 μg/mL antigen, Day 50 of culturing, No Antigen Value 2149): 2268 RLU
Proliferation (luminescent ATP assay), Mean (Donor 3 GMA T-Cell Lines; T-cell line 165-05G, 10 μg/mL antigen, Day 50 of culturing, No Antigen Value 2149): 2256 RLU
Proliferation (luminescent ATP assay), Mean (Donor 3 GMA T-Cell Lines; T-cell line 165-05G, 30 μg/mL antigen, Day 50 of culturing, No Antigen Value 2149): 2137 RLU
Proliferation (luminescent ATP assay), Mean (Donor 3 GMA T-Cell Lines; T-cell line 165-B5G, 1 μg/mL antigen, Day 81 of culturing, No Antigen Value 2432): 4288 RLU
Proliferation (luminescent ATP assay), Mean (Donor 3 GMA T-Cell Lines; T-cell line 165-B5G, 1.25 μg/mL antigen, Day 55 of culturing, No Antigen Value 846): 1054 RLU
Proliferation (luminescent ATP assay), Mean (Donor 3 GMA T-Cell Lines; T-cell line 165-B5G, 2.5 μg/mL antigen, Day 55 of culturing, No Antigen Value 846): 1159 RLU
Proliferation (luminescent ATP assay), Mean (Donor 3 GMA T-Cell Lines; T-cell line 165-B5G, 3 μg/mL antigen, Day 81 of culturing, No Antigen Value 2432): 5153 RLU
Proliferation (luminescent ATP assay), Mean (Donor 3 GMA T-Cell Lines; T-cell line 165-B5G, 5 μg/mL antigen, Day 55 of culturing, No Antigen Value 846): 1687 RLU
Proliferation (luminescent ATP assay), Mean (Donor 3 GMA T-Cell Lines; T-cell line 165-B5G, 10 μg/mL antigen, Day 55 of culturing, No Antigen Value 846): 3589 RLU
Proliferation (luminescent ATP assay), Mean (Donor 3 GMA T-Cell Lines; T-cell line 165-B5G, 10 μg/mL antigen, Day 81 of culturing, No Antigen Value 2432): 11847 RLU
Proliferation (luminescent ATP assay), Mean (Donor 3 GMA T-Cell Lines; T-cell line 165-B5G, 30 μg/mL antigen, Day 81 of culturing, No Antigen Value 2432): 11416 RLU
Proliferation (luminescent ATP assay), Mean (Donor 3 GMA T-Cell Lines; T-cell line 165-C5G, 1.25 μg/mL antigen, autologous B-LCL): 485 RLU
Proliferation (luminescent ATP assay), Mean (Donor 3 GMA T-Cell Lines; T-cell line 165-C5G, 2.5 μg/mL antigen, autologous B-LCL): 552 RLU
Proliferation (luminescent ATP assay), Mean (Donor 3 GMA T-Cell Lines; T-cell line 165-C5G, 5 μg/mL antigen, autologous B-LCL): 585 RLU
Proliferation (luminescent ATP assay), Mean (Donor 3 GMA T-Cell Lines; T-cell line 165-C5G, 10 μg/mL antigen, autologous B-LCL): 579 RLU
Proliferation (luminescent ATP assay), Mean (Donor 3 GMA T-Cell Lines; T-cell line 165-E7G, 1 μg/mL antigen, Day 81 of culturing, No Antigen Value 2145): 3992 RLU
Proliferation (luminescent ATP assay), Mean (Donor 3 GMA T-Cell Lines; T-cell line 165-E7G, 1.25 μg/mL antigen, autologous B-LCL, Day 55): 2983 RLU
Proliferation (luminescent ATP assay), Mean (Donor 3 GMA T-Cell Lines; T-cell line 165-E7G, 2.5 μg/mL antigen, autologous B-LCL, Day 55): 3783 RLU
Proliferation (luminescent ATP assay), Mean (Donor 3 GMA T-Cell Lines; T-cell line 165-E7G, 3 μg/mL antigen, Day 81 of culturing, No Antigen Value 2145): 5133 RLU
Proliferation (luminescent ATP assay), Mean (Donor 3 GMA T-Cell Lines; T-cell line 165-E7G, 5 μg/mL antigen, autologous B-LCL, Day 55): 5821 RLU
Proliferation (luminescent ATP assay), Mean (Donor 3 GMA T-Cell Lines; T-cell line 165-E7G, 10 μg/mL antigen, Day 81 of culturing, No Antigen Value 2145): 12006 RLU
Proliferation (luminescent ATP assay), Mean (Donor 3 GMA T-Cell Lines; T-cell line 165-E7G, 10 μg/mL antigen, autologous B-LCL, Day 55): 5710 RLU
Proliferation (luminescent ATP assay), Mean (Donor 3 GMA T-Cell Lines; T-cell line 165-E7G, 30 μg/mL antigen, Day 81 of culturing, No Antigen Value 2145): 12836 RLU
Proliferation (luminescent ATP assay), Mean (Donor 3 GMA T-Cell Lines; T-cell line 165-E9G, 1 μg/mL antigen, Day 50 of culturing, No Antigen Value 1742): 1630 RLU
Proliferation (luminescent ATP assay), Mean (Donor 3 GMA T-Cell Lines; T-cell line 165-E9G, 1.25 μg/mL antigen, autologous B-LCL): 142 RLU
Proliferation (luminescent ATP assay), Mean (Donor 3 GMA T-Cell Lines; T-cell line 165-E9G, 2.5 μg/mL antigen, autologous B-LCL): 195 RLU
Proliferation (luminescent ATP assay), Mean (Donor 3 GMA T-Cell Lines; T-cell line 165-E9G, 3 μg/mL antigen, Day 50 of culturing, No Antigen Value 1742): 1600 RLU
Proliferation (luminescent ATP assay), Mean (Donor 3 GMA T-Cell Lines; T-cell line 165-E9G, 5 μg/mL antigen, autologous B-LCL): 233 RLU
